Measured values: US6087401A, “Cyclopentenones, process for preparing the same, and the use thereof” (Takara Shuzo Co., Ltd., priority 1996, dated 2000)

Tests used:
Conditions in all cases: method of the corresponding examples
[1] = antibacterial activity of optically active cyclopentenones; format: cell-based
[2] = test system: human promyelocytic leukemia cells HL-60; assay: MTT cell growth inhibition, optically active cyclopentenones; format: cell-based
Experimental: An ethanolic solution (1 mg/ml) of each of the (-)- and (+) -cyclopentenoneobtained in Example 16 was diluted with a 75% aqueous ethanol solution to an extent of 2, 4, 8, 16, 32, 64, 128, 256, 512, 1024 and 2048-fold and each 5 μl of them was charged in each of the wells of a 96-well microtiter plate followed by drying with air. An RPMI 1640 medium (100 μl) containing 10% fetal bovine serum containing 5000 human promyelocytic leukemia cells HL-60 (ATCC CCL-240) was added to each well and incubated at 37° C. for 48 hours in the presence of 5% of carbon dioxide gas. After observing the morphology of the cells under an optical microscope, 10 μl of phosphate buffered saline containing 5 mg/ml of 3-(4,5-dimethylthiazol-2-yl)-2,5-diphenyltetrazolium bromide (MTT; manufactured by Sigma) thereto, an incubation was conducted for additional four hours and the growth state of the cells was observed under a microscope. Further, 100 μl of 2-propanol containing 0.04N HCl was added thereto followed by well stirring and an absorbance at 590 nm was measured and defined as the degree of cell growth.

HL-60 cells [3] = assay: apoptosis-inducing activity to HL-60 cells; format: cell-based, human
Experimental: (2) The cyclopentenone prepared in Example 2-(1) was used for preparing aqueous solutions of the cyclopentenone in the concentrations of 2.86 mM, 955 μM, 318 μM, 106 μM, 35 μM, 12 μM and […]. Then said heat-treated substance was adjusted to pH 7.0 with NaOH and the apoptosis-inducing activity to HL-60 cells was measured as follows.
To 1.35 ml of this suspension was added 0.15 ml of the above-mentioned cyclopentenone solution and the mixture was incubated at […] for 20 hours in the presence of 5% of carbon dioxide gas.

HL-60 cells [4] = assay: cancer cell differentiation (Wright-Giemsa stain); format: cell-based, human
Experimental: (2) To HL-60 cells was added 10^-4 μg/ml of the cyclopentenone and an incubation by the same manner as in Example 15-(1) was conducted for three days. […] The result was that the differentiated cells were around 10% in the control where no cyclopentenone was added while, in the fractions to which the cyclopentenone was added, 50% or more cells were differentiated to monocyte- or to macrophage-like cells.
The result was that the differentiated cells were around 10% in the control where no cyclopentenone was added while, in the fraction to which 0.005 μg/ml of the cyclopentenone was added, 25% or more cells were differentiated to mature bone marrow cells.

Row | SMILES | antibacterial activity [1] | cell growth inhibition [2] | apoptosis inducing activity (HL-60 cells [3]) | cancer cell differentiation inducing activity (HL-60 cells [4])
1 | O=C1C=CC(O)C1O (single isomer, unassigned; (-)) [(-)-cis-cyclopentenone] | antibacterial activity | cell growth inhibiting activity | apoptosis inducing activity | cancer cell differentiation inducing activity
2 | O=C1C=C[C@@H](O)[C@@H]1O (single isomer, unassigned) [(+)-trans-cyclopentenone, (+)-trans-4,5-dihydroxy-2-cyclopenten-1-one] | antibacterial activity | cell growth inhibiting activity | apoptosis inducing activity | cancer cell differentiation inducing activity
3 | O=C1C=C[C@@H](O)[C@@H]1O (single isomer, unassigned) [(-)-trans-cyclopentenone, (-)-trans-4,5-dihydroxy-2-cyclopenten-1-one] | antibacterial activity | cell growth inhibiting activity | apoptosis inducing activity | cancer cell differentiation inducing activity
4 | O=C1C=CC(O)C1O (single isomer, unassigned; (+)) [(+)-cis-cyclopentenone] | antibacterial activity | cell growth inhibiting activity | apoptosis inducing activity | cancer cell differentiation inducing activity
